The source made the active and inactive calls.
Tests used:
[1] = molecular target: T1, ATP-dependent translocase ABCB1 (Homo sapiens, UniProt P08183); assay: inhibition of BCRP-mediated JC-1 efflux – Ig-MXP3 cells, flow cytometry, set 2, dose response (AID 504566); type: functional; settings: read-out: EC50_MICROM_;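 also: flow cytometry median green fluorescence of retained JC-1 dye; potency of efflux pump inhibition measured as rising substrate retention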
[2] = molecular target: T1, ATP-dependent translocase ABCB1; assay: P-gp JC-1 efflux blockade concentration-response – Jurkat-DNR cells, flow cytometry, set 2, dose response (AID 504569); type: functional; settings: read-out: EC50_MICROM_;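 also: potency of pump inhibitors that raise cellular JC-1 green fluorescence up to the nicardipine level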
H9c2 = assay: cells; type: functional, cell-based; settings: Rattus norvegicus, H9c2, Myocardium;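 also: confirmatory concentration-response retest of ultra-high-throughput screening hits for modulation of myocardial damage; cell death induced by hydrogen peroxide oxidative stress; compound pretreatment for 60 min then peroxide exposure for 2 h; potency is for protecting the cells against peroxide damage rather than for killing them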
[3] = molecular target: Potassium voltage-gated channel subfamily KQT member 2 (Rattus norvegicus, UniProt O88943); assay: blockers of KCNQ2 channel current – cell-based, automated electrophysiology, set II, rat KCNQ2, dose response (AID 588637); type: functional
[4] = molecular target: Voltage-dependent T-type calcium channel subunit alpha-1H (Homo sapiens, UniProt O95180); type: functional;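 also: channel activity triggered by adding a high calcium stimulation buffer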
[5] = molecular target: T2, Low molecular weight phosphotyrosine protein phosphatase (Homo sapiens, UniProt P24666); type: functional; settings: read-out: IC50_Mean
T2 sequence (P24666 whole entry): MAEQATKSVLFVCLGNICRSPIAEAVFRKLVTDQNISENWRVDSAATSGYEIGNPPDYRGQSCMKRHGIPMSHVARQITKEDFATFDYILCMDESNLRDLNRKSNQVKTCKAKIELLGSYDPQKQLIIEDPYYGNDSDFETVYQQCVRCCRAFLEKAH

[6] = molecular target: T3, Carboxy-terminal domain RNA polymerase II polypeptide A small phosphatase 1 (Homo sapiens, UniProt Q9GZU7); assay: CTDSP1 inhibitors, concentration-response, biochemical, absorbance readout, ultra-high-throughput screen actives (AID 540297); type: functional
T3 sequence (Q9GZU7 whole entry): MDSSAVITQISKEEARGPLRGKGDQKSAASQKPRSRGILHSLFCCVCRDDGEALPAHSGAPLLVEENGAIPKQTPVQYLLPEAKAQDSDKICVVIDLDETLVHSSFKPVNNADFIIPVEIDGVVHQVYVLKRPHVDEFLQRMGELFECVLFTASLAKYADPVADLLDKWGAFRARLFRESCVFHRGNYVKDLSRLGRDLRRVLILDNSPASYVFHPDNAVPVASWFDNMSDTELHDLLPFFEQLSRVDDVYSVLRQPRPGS

[7] = molecular target: T2, Low molecular weight phosphotyrosine protein phosphatase; type: functional; settings: read-out: IC50_Mean; remark: listed apart in the source

T1 sequence (P08183 whole entry): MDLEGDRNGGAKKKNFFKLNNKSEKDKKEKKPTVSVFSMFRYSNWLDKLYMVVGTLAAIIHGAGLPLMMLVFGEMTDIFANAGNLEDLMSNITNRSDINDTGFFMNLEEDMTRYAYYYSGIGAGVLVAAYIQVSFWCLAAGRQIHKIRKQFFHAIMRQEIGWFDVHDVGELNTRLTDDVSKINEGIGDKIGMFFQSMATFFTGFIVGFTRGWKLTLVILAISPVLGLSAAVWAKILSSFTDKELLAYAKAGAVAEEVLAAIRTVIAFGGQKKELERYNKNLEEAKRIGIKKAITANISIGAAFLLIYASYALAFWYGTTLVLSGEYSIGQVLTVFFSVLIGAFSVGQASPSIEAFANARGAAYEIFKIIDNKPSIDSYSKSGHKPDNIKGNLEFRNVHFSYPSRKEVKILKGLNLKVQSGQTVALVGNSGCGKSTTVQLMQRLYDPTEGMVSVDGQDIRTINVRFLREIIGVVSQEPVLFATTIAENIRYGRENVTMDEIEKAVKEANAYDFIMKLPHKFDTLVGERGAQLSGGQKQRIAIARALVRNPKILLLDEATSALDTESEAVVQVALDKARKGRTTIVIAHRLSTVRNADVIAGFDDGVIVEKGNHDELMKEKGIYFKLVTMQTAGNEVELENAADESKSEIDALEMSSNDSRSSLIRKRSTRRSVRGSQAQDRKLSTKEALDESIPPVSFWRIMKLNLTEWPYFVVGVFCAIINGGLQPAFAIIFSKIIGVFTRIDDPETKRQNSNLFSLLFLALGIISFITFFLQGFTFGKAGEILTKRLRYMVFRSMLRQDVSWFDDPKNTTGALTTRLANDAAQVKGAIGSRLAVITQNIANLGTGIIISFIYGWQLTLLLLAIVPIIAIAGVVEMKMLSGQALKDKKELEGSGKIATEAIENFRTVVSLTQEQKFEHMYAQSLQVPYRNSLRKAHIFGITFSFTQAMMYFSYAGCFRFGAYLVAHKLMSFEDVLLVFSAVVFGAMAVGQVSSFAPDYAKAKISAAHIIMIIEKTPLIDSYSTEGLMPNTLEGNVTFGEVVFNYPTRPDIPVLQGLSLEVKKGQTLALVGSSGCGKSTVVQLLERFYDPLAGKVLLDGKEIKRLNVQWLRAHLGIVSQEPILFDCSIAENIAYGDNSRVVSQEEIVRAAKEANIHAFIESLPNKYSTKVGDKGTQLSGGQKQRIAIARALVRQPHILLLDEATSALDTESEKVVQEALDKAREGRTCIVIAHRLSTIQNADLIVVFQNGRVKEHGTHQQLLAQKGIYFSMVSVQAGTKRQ
Chain of Voltage-dependent T-type calcium channel subunit alpha-1H (O95180 whole entry): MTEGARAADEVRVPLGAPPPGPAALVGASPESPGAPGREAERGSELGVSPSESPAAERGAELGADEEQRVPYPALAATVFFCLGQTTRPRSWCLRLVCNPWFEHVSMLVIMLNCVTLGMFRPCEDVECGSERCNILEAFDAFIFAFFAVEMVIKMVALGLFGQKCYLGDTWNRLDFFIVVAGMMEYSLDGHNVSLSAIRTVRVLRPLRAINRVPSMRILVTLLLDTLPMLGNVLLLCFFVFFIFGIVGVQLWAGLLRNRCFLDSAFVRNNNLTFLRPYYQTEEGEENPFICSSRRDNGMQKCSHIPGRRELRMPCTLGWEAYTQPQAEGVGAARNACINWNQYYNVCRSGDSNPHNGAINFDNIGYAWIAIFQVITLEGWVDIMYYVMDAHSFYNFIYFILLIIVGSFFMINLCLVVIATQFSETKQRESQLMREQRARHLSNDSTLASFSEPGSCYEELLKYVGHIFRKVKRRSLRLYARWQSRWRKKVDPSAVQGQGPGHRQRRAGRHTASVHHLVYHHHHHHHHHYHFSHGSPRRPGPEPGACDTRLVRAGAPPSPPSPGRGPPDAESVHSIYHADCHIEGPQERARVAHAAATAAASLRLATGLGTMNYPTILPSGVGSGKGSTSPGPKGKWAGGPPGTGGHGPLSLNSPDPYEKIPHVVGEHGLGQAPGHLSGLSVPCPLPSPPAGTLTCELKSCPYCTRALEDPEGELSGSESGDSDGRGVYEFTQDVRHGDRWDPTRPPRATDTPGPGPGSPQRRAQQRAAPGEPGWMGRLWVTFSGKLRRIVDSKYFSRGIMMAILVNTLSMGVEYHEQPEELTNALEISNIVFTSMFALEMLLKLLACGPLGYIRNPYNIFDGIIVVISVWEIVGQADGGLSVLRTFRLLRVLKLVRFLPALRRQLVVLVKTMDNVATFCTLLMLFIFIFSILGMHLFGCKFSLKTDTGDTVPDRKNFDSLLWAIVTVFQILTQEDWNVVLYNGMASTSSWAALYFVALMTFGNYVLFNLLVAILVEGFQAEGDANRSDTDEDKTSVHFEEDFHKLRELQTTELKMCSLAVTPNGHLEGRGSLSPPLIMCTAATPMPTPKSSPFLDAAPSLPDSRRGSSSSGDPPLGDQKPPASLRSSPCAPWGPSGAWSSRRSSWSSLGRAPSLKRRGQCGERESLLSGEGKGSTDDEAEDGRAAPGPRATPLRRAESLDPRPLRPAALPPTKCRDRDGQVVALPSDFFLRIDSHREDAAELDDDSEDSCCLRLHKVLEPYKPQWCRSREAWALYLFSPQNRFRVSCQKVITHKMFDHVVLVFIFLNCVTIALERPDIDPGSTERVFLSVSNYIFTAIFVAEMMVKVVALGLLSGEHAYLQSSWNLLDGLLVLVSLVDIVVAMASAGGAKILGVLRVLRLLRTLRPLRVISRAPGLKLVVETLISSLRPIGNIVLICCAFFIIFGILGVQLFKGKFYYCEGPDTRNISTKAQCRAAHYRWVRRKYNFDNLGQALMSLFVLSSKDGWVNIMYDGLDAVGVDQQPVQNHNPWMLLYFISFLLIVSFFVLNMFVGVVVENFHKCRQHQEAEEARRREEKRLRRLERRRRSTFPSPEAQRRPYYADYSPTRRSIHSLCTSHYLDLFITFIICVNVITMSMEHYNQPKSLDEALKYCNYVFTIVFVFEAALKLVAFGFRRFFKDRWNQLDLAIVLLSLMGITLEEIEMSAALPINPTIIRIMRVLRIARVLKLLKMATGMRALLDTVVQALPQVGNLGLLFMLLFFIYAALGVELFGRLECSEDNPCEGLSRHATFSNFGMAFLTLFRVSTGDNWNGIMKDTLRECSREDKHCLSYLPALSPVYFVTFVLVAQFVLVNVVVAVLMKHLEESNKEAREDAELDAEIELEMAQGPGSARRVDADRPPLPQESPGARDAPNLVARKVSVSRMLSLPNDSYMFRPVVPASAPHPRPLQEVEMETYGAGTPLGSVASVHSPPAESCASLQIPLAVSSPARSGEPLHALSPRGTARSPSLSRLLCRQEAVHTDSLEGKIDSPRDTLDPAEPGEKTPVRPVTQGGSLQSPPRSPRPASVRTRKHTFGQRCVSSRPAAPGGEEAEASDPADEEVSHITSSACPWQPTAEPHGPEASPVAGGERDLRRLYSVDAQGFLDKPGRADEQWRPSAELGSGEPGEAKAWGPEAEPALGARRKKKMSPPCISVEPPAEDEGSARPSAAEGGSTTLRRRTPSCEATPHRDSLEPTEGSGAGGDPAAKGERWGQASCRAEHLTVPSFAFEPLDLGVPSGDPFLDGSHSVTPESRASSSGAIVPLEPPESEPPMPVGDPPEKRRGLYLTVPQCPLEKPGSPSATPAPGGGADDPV
Chain of Potassium voltage-gated channel subfamily KQT member 2 (O88943 whole entry): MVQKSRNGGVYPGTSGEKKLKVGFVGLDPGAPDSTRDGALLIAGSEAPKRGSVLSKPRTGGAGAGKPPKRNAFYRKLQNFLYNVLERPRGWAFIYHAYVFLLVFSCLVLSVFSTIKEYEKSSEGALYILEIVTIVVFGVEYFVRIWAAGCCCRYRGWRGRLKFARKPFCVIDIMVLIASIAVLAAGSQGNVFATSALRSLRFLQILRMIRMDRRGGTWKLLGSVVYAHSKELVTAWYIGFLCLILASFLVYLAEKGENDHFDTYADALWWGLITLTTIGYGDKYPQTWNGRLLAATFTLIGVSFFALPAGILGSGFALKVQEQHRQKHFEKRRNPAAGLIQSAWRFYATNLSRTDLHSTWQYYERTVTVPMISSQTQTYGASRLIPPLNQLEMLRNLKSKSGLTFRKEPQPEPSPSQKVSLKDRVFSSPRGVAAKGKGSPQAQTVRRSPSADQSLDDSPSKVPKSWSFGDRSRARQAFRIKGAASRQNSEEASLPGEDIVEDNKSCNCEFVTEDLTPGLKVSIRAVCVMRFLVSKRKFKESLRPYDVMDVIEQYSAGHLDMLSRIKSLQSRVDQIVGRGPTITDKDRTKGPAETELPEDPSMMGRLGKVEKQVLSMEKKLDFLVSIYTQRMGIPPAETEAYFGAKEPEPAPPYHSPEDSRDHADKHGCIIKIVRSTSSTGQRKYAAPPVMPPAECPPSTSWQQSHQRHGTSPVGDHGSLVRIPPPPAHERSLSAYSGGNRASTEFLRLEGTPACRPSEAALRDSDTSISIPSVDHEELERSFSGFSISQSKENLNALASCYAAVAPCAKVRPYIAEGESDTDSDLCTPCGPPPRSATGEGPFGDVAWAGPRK

With `O=C(c1ccoc1)N1CCN(c2cc(-c3ccncc3)nc3cc(-c4cccc(Cl)c4)nn23)CC1` the EC50 [1] was 2.21 µM (active), the EC50 [2] was 3.43 µM (active) and the IC50 (H9c2) was > 79 µM (inactive).

`CCOc1ccc(-c2nc(CSCC(=O)NC3CCCc4ccccc43)c(C)o2)cc1` (stereo not drawn) was tested, and the IC50 [3] was 1.51 µM (active) and the EC50 [4] was 3.26 µM (active).

For `Cc1cc2oc(C(=O)NCCc3ccc(S(N)(=O)=O)cc3)c(C)c2cc1C`, the IC50 [5] was 48.1 µM (inactive), the IC50 [6] was > 80 µM (inactive) and the IC50 [7] was 29.9 µM (inactive).

Source: ChEMBL document CHEMBL1201862, “PubChem BioAssay data set” (2004)
